Here are results for 18 compounds from patent US11331314B2, “Amine substituted triazole derivatives and uses thereof” (Bayer Pharma Aktiengesellschaft, priority 2017, dated 2022).

What is called IC50 is the concentration that gives 50% inhibition.

For one assay, the target named is T1, human V2 receptor (Homo sapiens, UniProt P30518).
T1 construct: expressed in transfected cells; host or cells: CHO K1 (ATCC) expressing firefly luciferase under a CRE-responsive promoter
In words: Cellular in vitro assay for determining vasopressin receptor activity, V2 receptor cell line (CRE-luciferase). In kind it is cell-based. The following applies: CHO cell line transfected with the human V2 receptor; agonist [Arg8]-vasopressin at EC50 concentration; read-out: IC50 hV2.

A further assay addresses human V1a receptor (Homo sapiens, UniProt P37288). In words: Cellular in vitro assay for determining vasopressin receptor activity, V1a receptor cell line (photoprotein luminescence). In kind it is cell-based. The following applies: for IC50: CHO cell line transfected with the human V1a receptor, agonist [Arg8]-vasopressin at EC50 concentration, read-out: IC50 hV1a; for ratio IC50 hV2/hV1a: selectivity ratio of the cellular IC50 values. A digest of the protocol: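 CHO K1 cells stably expressing human V1a receptor with aequorin photoprotein, loaded overnight with coelenterazine. Compounds preincubated 10 min at various concentrations, then challenged with [Arg^8]-vasopressin at EC50 concentration. Calcium-driven luminescence read immediately; IC50 values derived.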

Chain of human V1a receptor (P37288 whole entry): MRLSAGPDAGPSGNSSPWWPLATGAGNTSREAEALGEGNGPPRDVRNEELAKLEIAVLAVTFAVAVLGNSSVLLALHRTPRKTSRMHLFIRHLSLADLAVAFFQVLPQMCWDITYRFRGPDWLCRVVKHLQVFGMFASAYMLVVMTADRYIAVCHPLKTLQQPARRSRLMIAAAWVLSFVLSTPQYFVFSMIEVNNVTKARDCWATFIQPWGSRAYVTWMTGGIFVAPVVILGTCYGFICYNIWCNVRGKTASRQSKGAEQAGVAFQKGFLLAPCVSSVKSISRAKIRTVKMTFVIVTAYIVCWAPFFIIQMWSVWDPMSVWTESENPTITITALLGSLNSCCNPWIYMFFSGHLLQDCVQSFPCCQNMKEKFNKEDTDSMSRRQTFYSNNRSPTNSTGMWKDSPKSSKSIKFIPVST
T1 sequence (P30518 whole entry): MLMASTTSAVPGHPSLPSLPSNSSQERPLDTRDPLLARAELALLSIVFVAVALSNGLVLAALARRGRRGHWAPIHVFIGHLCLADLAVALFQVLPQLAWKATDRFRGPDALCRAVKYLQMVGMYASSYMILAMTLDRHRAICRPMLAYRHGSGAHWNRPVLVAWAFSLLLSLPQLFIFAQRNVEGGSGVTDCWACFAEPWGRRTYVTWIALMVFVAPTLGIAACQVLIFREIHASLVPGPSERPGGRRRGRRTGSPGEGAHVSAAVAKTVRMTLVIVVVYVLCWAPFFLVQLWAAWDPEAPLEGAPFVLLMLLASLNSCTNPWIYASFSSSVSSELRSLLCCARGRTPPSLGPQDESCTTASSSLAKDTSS

`O=c1n(Cc2nc(N3CCS(=O)(=O)CC3)n(-c3ccccc3F)n2)nc(-c2ccc(Cl)cc2)n1C[C@H](O)C(F)(F)F` [Example 90, 5-(4-Chlorophenyl)-2-{[5-(1,1-dioxidothiomorpholin-4-yl)-1-(2-fluorophenyl)-1H-1,2,4-triazol-3-yl]methyl}-4-[(2S)-3,3,3-trifluoro-2-hydroxypropyl]-2,4-dihydro-3H-1,2,4-triazol-3-one]: at human V2 receptor, the IC50 was 248 nM. Moreover, on human V1a receptor, the IC50 is 8.8 nM and the “ratio IC50 hV2/hV1a” value was determined as 28.1.

`CC(C)(N)CNc1nc(Cn2nc(-c3ccc(Cl)cc3)n(C[C@H](O)C(F)(F)F)c2=O)nn1-c1ccccc1F` [Example 91, 2-({5-[(2-Amino-2-methylpropyl)amino]-1-(2-fluorophenyl)-1H-1,2,4-triazol-3-yl}methyl)-5-(4-chlorophenyl)-4-[(2S)-3,3,3-trifluoro-2-hydroxypropyl]-2,4-dihydro-3H-1,2,4-triazol-3-one]: the figures for the IC50 on human V2 receptor and at human V1a receptor were 105 nM and 1.15 nM, respectively. The “ratio IC50 hV2/hV1a” value on human V1a receptor is recorded as 91.7.

As for `CC(C)(N)CNc1nc(Cn2nc(-c3ccc(Cl)cc3)n(C[C@H](O)C(F)(F)F)c2=O)nn1-c1ncccc1F` [Example 92, 2-({5-[(2-Amino-2-methylpropyl)amino]-1-(3-fluoropyridin-2-yl)-1H-1,2,4-triazol-3-yl}methyl)-5-(4-chlorophenyl)-4-[(2S)-3,3,3-trifluoro-2-hydroxypropyl]-2,4-dihydro-3H-1,2,4-triazol-3-one], at human V2 receptor, the IC50 is 3050 nM. Moreover, on human V1a receptor, the IC50 is 41.5 nM and the “ratio IC50 hV2/hV1a” value came to 73.5.

With `CC(C)(N)CNc1nc(Cn2nc(-c3ccc(Cl)cc3)n(C[C@H](O)C(F)(F)F)c2=O)nn1-c1ccccn1` [Example 93, 2-({5-[(2-Amino-2-methylpropyl)amino]-1-(pyridin-2-yl)-1H-1,2,4-triazol-3-yl}methyl)-5-(4-chlorophenyl)-4-[(2S)-3,3,3-trifluoro-2-hydroxypropyl]-2,4-dihydro-3H-1,2,4-triazol-3-one], the IC50 on human V2 receptor was found to be 3150 nM. In addition, at human V1a receptor, the IC50 was found to be 28 nM and the “ratio IC50 hV2/hV1a” value is given as 112.5.

Consider `CC(C)(N)CNc1nc(Cn2nc(-c3ccc(Cl)cc3)n(C[C@H](O)C(F)(F)F)c2=O)nn1-c1ccccc1` [Example 94, 2-({5-[(2-Amino-2-methylpropyl)amino]-1-phenyl-1H-1,2,4-triazol-3-yl}methyl)-5-(4-chlorophenyl)-4-[(2S)-3,3,3-trifluoro-2-hydroxypropyl]-2,4-dihydro-3H-1,2,4-triazol-3-one], for which the IC50 on human V2 receptor was determined as 95.5 nM; on human V1a receptor, 4.3 nM. Moreover, at human V1a receptor, the “ratio IC50 hV2/hV1a” value was 22.2.

For `CC(C)(N)CNc1nc(Cn2nc(-c3ccc(Cl)cc3)n(C[C@H](O)C(F)(F)F)c2=O)nn1-c1ncccc1Cl` [Example 95, 2-({5-[(2-Amino-2-methylpropyl)amino]-1-(3-chloropyridin-2-yl)-1H-1,2,4-triazol-3-yl}methyl)-5-(4-chlorophenyl)-4-[(2S)-3,3,3-trifluoro-2-hydroxypropyl]-2,4-dihydro-3H-1,2,4-triazol-3-one], the IC50 on human V2 receptor was found to be 727 nM. Also, on human V1a receptor, the IC50 turned out to be 0.86 nM and the “ratio IC50 hV2/hV1a” value is recorded as 845.9.

With `O=c1n(Cc2nc(N3CCS(=O)(=O)CC3)n(-c3ncccc3Cl)n2)nc(-c2ccc(Cl)cc2)n1C[C@H](O)C(F)(F)F` [Example 96, 5-(4-Chlorophenyl)-2-{[1-(3-chloropyridin-2-yl)-5-(1,1-dioxidothiomorpholin-4-yl)-1H-1,2,4-triazol-3-yl]methyl}-4-[(2S)-3,3,3-trifluoro-2-hydroxypropyl]-2,4-dihydro-3H-1,2,4-triazol-3-one], on human V2 receptor, the IC50 came to 408 nM. Also, at human V1a receptor, the IC50 was 1 nM and the “ratio IC50 hV2/hV1a” value was found to be 407.5.

With `O=C1CN(c2nc(Cn3nc(-c4ccc(Cl)cc4)n(C[C@H](O)C(F)(F)F)c3=O)nn2-c2ncccc2Cl)CCN1` [Example 97, 4-[3-({3-(4-Chlorophenyl)-5-oxo-4-[(2S)-3,3,3-trifluoro-2-hydroxypropyl]-4,5-dihydro-1H-1,2,4-triazol-1-yl}methyl)-1-(3-chloropyridin-2-yl)-1H-1,2,4-triazol-5-yl]piperazin-2-one], the IC50 at human V2 receptor amounted to 99.5 nM. Also, on human V1a receptor, the IC50 was found to be 0.56 nM and the “ratio IC50 hV2/hV1a” value worked out at 176.9.

Take `CC(C)(O)CNc1nc(Cn2nc(-c3ccc(Cl)cc3)n(C[C@H](O)C(F)(F)F)c2=O)nn1-c1ncccc1Cl` [Example 98, 5-(4-Chlorophenyl)-2-({1-(3-chloropyridin-2-yl)-5-[(2-hydroxy-2-methylpropyl)amino]-1H-1,2,4-triazol-3-yl}methyl)-4-[(2S)-3,3,3-trifluoro-2-hydroxypropyl]-2,4-dihydro-3H-1,2,4-triazol-3-one]: the results for the IC50 at human V2 receptor and at human V1a receptor were 145 nM and 1.9 nM, respectively.

For the compound `O=c1n(Cc2nc(N3CCS(=O)(=O)CC3)n(CCC(F)(F)F)n2)nc(-c2ccc(Cl)cc2)n1C[C@H](O)C(F)(F)F` [Example 100, 5-(4-Chlorophenyl)-2-{[5-(1,1-dioxidothiomorpholin-4-yl)-1-(3,3,3-trifluoropropyl)-1H-1,2,4-triazol-3-yl]methyl}-4-[(2S)-3,3,3-trifluoro-2-hydroxypropyl]-2,4-dihydro-3H-1,2,4-triazol-3-one], the values for the IC50 at human V2 receptor and at human V1a receptor were 3800 nM and 330 nM, respectively. For the same compound, the “ratio IC50 hV2/hV1a” value on human V1a receptor is on record as 11.5.

In the case of `O=C1CC[C@H](CNc2nc(Cn3nc(-c4ccc(Cl)cc4)n(C[C@H](O)C(F)(F)F)c3=O)nn2CCC(F)(F)F)N1` [Example 101, 5-(4-Chlorophenyl)-2-{[5-({[(2R)-5-oxopyrrolidin-2-yl]methyl}amino)-1-(3,3,3-trifluoropropyl)-1H-1,2,4-triazol-3-yl]methyl}-4-[(2S)-3,3,3-trifluoro-2-hydroxypropyl]-2,4-dihydro-3H-1,2,4-triazol-3-one], the IC50 on human V2 receptor was 510 nM. At human V1a receptor, the IC50 was found to be 29.5 nM and the “ratio IC50 hV2/hV1a” value is 17.3.

Regarding `CC(C)(CNc1nc(Cn2nc(-c3ccc(Cl)cc3)n(C[C@H](O)C(F)(F)F)c2=O)nn1CCC(F)(F)F)NS(C)(=O)=O` [Example 102, N-(1-{[3-({3-(4-Chlorophenyl)-5-oxo-4-[(2S)-3,3,3-trifluoro-2-hydroxypropyl]-4,5-dihydro-1H-1,2,4-triazol-1-yl}methyl)-1-(3,3,3-trifluoropropyl)-1H-1,2,4-triazol-5-yl]amino}-2-methylpropan-2-yl)methanesulfonamide], the IC50 at human V2 receptor stood at 123 nM. Besides, at human V1a receptor, the IC50 amounted to 3.9 nM and the “ratio IC50 hV2/hV1a” value worked out at 31.5.

For `O=C1CC[C@@H](CNc2nc(Cn3nc(-c4ccc(Cl)cc4)n(C[C@H](O)C(F)(F)F)c3=O)nn2CCC(F)(F)F)N1` [Example 109, 5-(4-Chlorophenyl)-2-{[5-({[(2S)-5-oxopyrrolidin-2-yl]methyl}amino)-1-(3,3,3-trifluoropropyl)-1H-1,2,4-triazol-3-yl]methyl}-4-[(2S)-3,3,3-trifluoro-2-hydroxypropyl]-2,4-dihydro-3H-1,2,4-triazol-3-one], at human V2 receptor, the IC50 came out at 385 nM. For the same compound, on human V1a receptor, the IC50 was 9.4 nM and the “ratio IC50 hV2/hV1a” value is reported as 41.0.

As to `CC(C)(O)CNc1nc(Cn2nc(-c3ccc(Cl)cc3)n(C[C@H](O)C(F)(F)F)c2=O)nn1CCC(F)(F)F` [Example 110, 5-(4-Chlorophenyl)-2-({5-[(2-hydroxy-2-methylpropyl)amino]-1-(3,3,3-trifluoropropyl)-1H-1,2,4-triazol-3-yl}methyl)-4-[(2S)-3,3,3-trifluoro-2-hydroxypropyl]-2,4-dihydro-3H-1,2,4-triazol-3-one], on human V2 receptor, the IC50 worked out at 170 nM. Moreover, on human V1a receptor, the IC50 came out at 1.4 nM and the “ratio IC50 hV2/hV1a” value came to 121.4.

In the case of `CC(C)(N)CNc1nc(Cn2nc(-c3ccc(Cl)cc3)n(C[C@H](O)C(F)(F)F)c2=O)nn1CCC(F)(F)F` [Example 111, 2-({5-[(2-Amino-2-methylpropyl)amino]-1-(3,3,3-trifluoropropyl)-1H-1,2,4-triazol-3-yl}methyl)-5-(4-chlorophenyl)-4-[(2S)-3,3,3-trifluoro-2-hydroxypropyl]-2,4-dihydro-3H-1,2,4-triazol-3-one], the IC50 at human V2 receptor was 2750 nM; at human V1a receptor it was 18.5 nM. For the same compound, the “ratio IC50 hV2/hV1a” value on human V1a receptor was 148.7.

In the case of `O=C1CN(c2nc(Cn3nc(-c4ccc(Cl)cc4)n(C[C@H](O)C(F)(F)F)c3=O)nn2CCC(F)(F)F)CCN1` [Example 112, 4-[3-({3-(4-Chlorophenyl)-5-oxo-4-[(2S)-3,3,3-trifluoro-2-hydroxypropyl]-4,5-dihydro-1H-1,2,4-triazol-1-yl}methyl)-1-(3,3,3-trifluoropropyl)-1H-1,2,4-triazol-5-yl]piperazin-2-one], the IC50 on human V2 receptor was determined as 810 nM. Moreover, on human V1a receptor, the IC50 is 114 nM and the “ratio IC50 hV2/hV1a” value is 7.1.

With `NC(=O)C1CN(c2nc(Cn3nc(-c4ccc(Cl)cc4)n(C[C@H](O)C(F)(F)F)c3=O)nn2CCC(F)(F)F)C1` [Example 113, 1-[3-({3-(4-Chlorophenyl)-5-oxo-4-[(2S)-3,3,3-trifluoro-2-hydroxypropyl]-4,5-dihydro-1H-1,2,4-triazol-1-yl}methyl)-1-(3,3,3-trifluoropropyl)-1H-1,2,4-triazol-5-yl]azetidine-3-carboxamide], at human V2 receptor, the IC50 turned out to be 360 nM. Further, at human V1a receptor, the IC50 is 37 nM and the “ratio IC50 hV2/hV1a” value was found to be 9.7.

In the case of `CC1(C)CN(c2nc(Cn3nc(-c4ccc(Cl)cc4)n(C[C@H](O)C(F)(F)F)c3=O)nn2CCC(F)(F)F)CCN1` [Example 114, 5-(4-Chlorophenyl)-2-{[5-(3,3-dimethylpiperazin-1-yl)-1-(3,3,3-trifluoropropyl)-1H-1,2,4-triazol-3-yl]methyl}-4-[(2S)-3,3,3-trifluoro-2-hydroxypropyl]-2,4-dihydro-3H-1,2,4-triazol-3-one], the IC50 on human V2 receptor came to 1800 nM; at human V1a receptor, 10.3 nM.
